# According to US9510598B2, “Nitrogen-containing heterocyclic compounds for plant disease control” (BAYER CROPSCIENCE AG, priority 2012, dated 2016):
# Assay type: physicochemical
# Details: HPLC on reversed phase columns, method [a]: pH 2.7, 0.1% formic acid in water / acetonitrile, linear gradient 10% to 95% acetonitrile
row,log P,SMILES
1,3.27[a],CC1CCCC1(C#N)NC(=O)C1(C)CC(c2ccc3ncc(Br)cc3c2)=NO1 (stereo not shown) [compound 313]
2,2.57[a],C#CC1(C(=O)NCc2cn(CC)nc2C)CC(c2ccc3ncc(Br)cc3c2)=NO1 (stereo not shown) [compound 626]
3,1.40[a],COc1ccncc1CNC(=O)C1(C)CC(c2ccc3ncc(Br)cc3c2)=NO1 (stereo not shown) [compound 670]
4,3.06[a],C#Cc1cnc2c(C)cc(C3=NOC(C)(C(=O)NC(C)C)C3)cc2c1 (stereo not shown) [compound 571]
5,3.44[a],C#Cc1cnc2ccc(C3=NOC(C)(C(=S)NCC4COC(C)(C)O4)C3)cc2c1 (stereo not shown) [compound 513]
6,2.01[a],CC1(C(=O)NCc2ccncn2)CC(c2ccc3ncc(Br)cc3c2)=NO1 (stereo not shown) [compound 642]
7,1.47^[a],CN1C(C)(C)CC(NC(=O)C2(C)CC(c3ccc4ncc(Br)cc4c3)=NO2)CC1(C)C (stereo not shown) [compound 240]
8,2.76^[a],CCCSc1cnc2ccc(C3=NOC(C)(C(=O)NCc4cn(CC)nc4C)C3)cc2c1 (stereo not shown) [compound 264]
9,2.86[a],CCn1cc(CNC(=O)C2(C)CC(c3ccc4ncc(Br)cc4c3)=NO2)c(Br)n1 (stereo not shown) [compound 636]
10,2.63[a],C#Cc1cnc2ccc(C3=NOC(C)(C(=O)NCc4cn(C5CCC5)nc4C)C3)cc2c1 (stereo not shown) [compound 632]
11,2.37[a],CC(=O)C1(C(=O)NCc2cnc(C)cn2)CC(c2ccc3ncc(Br)cc3c2)=NO1 (stereo not shown) [compound 584]
12,3.08[a],C#CC(C)(C)NC(=O)C1(C)CC(c2ccc3ncc(Br)cc3c2)=NO1 (stereo not shown) [compound 624]
13,3.00[a],CC(C)NC(=O)C1(C)CC(c2ccc3nc(C#N)c(Br)cc3c2)=NO1 (stereo not shown) [compound 303]
14,2.23[a],C#Cc1cnc2ccc(C3=NOC(C)(C(=O)NCc4nc(C)cc(C)n4)C3)cc2c1 (stereo not shown) [compound 643]
15,2.35[a],C#Cc1cnc2ccc(C3=NOC(C)(C(=O)NCc4cn(CC)nc4OC)C3)cc2c1 (stereo not shown) [compound 637]
16,3.00[a],C#Cc1cnc2c(C)cc(C3=NOC(OC)(C(=O)NCCCOCC)C3)cc2c1 (stereo not shown) [compound 607]
17,3.92[a],C#Cc1cnc2ccc(C3=NOC(C)(C(=O)NC(c4cccc(C)c4)C(F)(F)F)C3)cc2c1 (stereo not shown) [compound 354]
18,2.45^[a],C#Cc1cnc2ccc(C3=NOC(C)(C(=O)NCc4ccc5ccccc5n4)C3)cc2c1 (stereo not shown) [compound 253]
19,3.15[a],C#Cc1cnc2c(C)cc(C3=NOC(OC)(C(=O)NC4CCC4)C3)cc2c1 (stereo not shown) [compound 612]
20,2.71[a],C#Cc1cnc2ccc(C3=NOC(C)(C(=O)NCc4cn(C5CCCC5)nc4C)C3)cc2c1 (stereo not shown) [compound 629]
21,3.31[a],CCCCCn1cc(CNC(=O)C2(C)CC(c3ccc4ncc(Br)cc4c3)=NO2)c(C)n1 (stereo not shown) [compound 655]
22,3.54[a],COc1nc2ccc(C3=NOC(C)(C(=O)NC(C)C)C3)cc2cc1Br (stereo not shown) [compound 275]
23,3.19^[a],CC(C)NC(=O)C12CCCC1C(c1ccc3ncc(Br)cc3c1)=NO2 (stereo not shown) [compound 255]
24,2.54[a],COc1cc(CNC(=O)C2(C)CC(c3ccc4ncc(Br)cc4c3)=NO2)ccn1 (stereo not shown) [compound 671]
25,3.19[a],CCOCCCNC(=O)C1(OC)CC(c2cc(Cl)c3ncc(Br)cc3c2)=NO1 (stereo not shown) [compound 577]
26,2.01[a],C#Cc1cnc2ccc(C3=NOC(C)(C(=O)NCc4ncccc4OC)C3)cc2c1 (stereo not shown) [compound 645]
27,1.95[a],C=Cc1cnc2ccc(C3=NOC(C)(C(=O)NCc4cn(CC)nc4C)C3)cc2c1 (stereo not shown) [compound 308]
28,4.36[a],Cc1cccc(C(NC(=O)C2(C)CC(c3ccc4ncc(Br)cc4c3)=NO2)C(F)(F)F)c1 (stereo not shown) [compound 358]
29,2.96[a],CCCCn1cc(CNC(=O)C2(C)CC(c3ccc4ncc(Br)cc4c3)=NO2)c(C)n1 (stereo not shown) [compound 657]

# Same assay, conditions: HPLC on reversed phase columns, method [a]: pH 2.7, 0.1% formic acid in water and acetonitrile, linear gradient 10% to 95% acetonitrile
row,log P,SMILES
1,6.11[a],CC1(C(=O)N(Cc2cc(F)cc3c2C(C)(C)CCC3)C2CC2)CC(c2ccc3ncc(Br)cc3c2)=NO1 (stereo not shown) [compound 815]
2,1.64[a],C#Cc1cnc2ccc(C3=NOC(C)(C(=O)NCc4cc(CC)ccn4)C3)cc2c1 (stereo not shown) [compound 745]
3,1.60[a],Cc1cccc(CNC(=O)C2(C)CC(c3ccc4ncc(Br)cc4c3)=NO2)n1 (stereo not shown) [compound 690]
4,4.46[a],CC(C)(C)Oc1ncccc1CNC(=O)C1(C)CC(c2ccc3ncc(Br)cc3c2)=NO1 (racemic) [compound 819]
5,2.23[a],C#Cc1cnc2ccc(C3=NOC(C)(C(=O)NCc4cccnc4F)C3)cc2c1 (stereo not shown) [compound 783]
6,1.72[a],CC1(C(=O)NCc2ccnc(O)c2)CC(c2ccc3ncc(Br)cc3c2)=NO1 (stereo not shown) [compound 765]
7,2.35[a],CC1(C(=O)N/C(=N/O)C2CC2)CC(c2ccc3ncc(Br)cc3c2)=NO1 (stereo not shown) [compound 740]
8,1.82[a],CCc1ccnc(CNC(=O)C2(C)CC(c3ccc4ncc(Br)cc4c3)=NO2)c1 (stereo not shown) [compound 752]
9,4.39[a],COC1(C(=O)Nc2cccc(CON=C(c3ccccc3)c3noc(=O)n3C)n2)CC(c2ccc3ncc(Br)cc3c2)=NO1 (stereo not shown) [compound 711]
10,2.71[a],C#Cc1cnc2ccc(C3=NOC(C)(C(=O)NCc4ccnc(OC(C)C)c4)C3)cc2c1 (stereo not shown) [compound 764]
11,2.37[a],C#CC1(NC(=O)C2(C)CC(c3ccc4ncc(Br)cc4c3)=NO2)COC1 (stereo not shown) [compound 722]
12,2.37[a],CC1(C(=O)NCc2cncc(F)c2)CC(c2ccc3ncc(Br)cc3c2)=NO1 (stereo not shown) [compound 784]
13,1.67[a],C#Cc1cnc2ccc(C3=NOC(C)(C(=O)NCc4cccc(CC)n4)C3)cc2c1 (stereo not shown) [compound 749]
14,2.39[a],CC(C)NC(=O)C1(C)CC(c2ccc3ncc(Br)c(Cl)c3c2)=NO1 (stereo not shown) [compound 736]
15,2.88[a],C#Cc1cnc2ccc(C3=NOC(C)(C(=O)NCC4CCC4)C3)cc2c1 (stereo not shown) [compound 778]
16,2.34[a],C#Cc1cnc2ccc(C3=NOC(C)(C(=O)NCc4cnn(CC(F)(F)F)c4)C3)cc2c1 (stereo not shown) [compound 772]
17,2.45[a],CCn1cc(NC(=O)C2(C)CC(c3ccc4ncc(Br)cc4c3)=NO2)cn1 (stereo not shown) [compound 694]
18,1.36[a],C#Cc1cnc2ccc(C3=NOC(C)(C(=O)NCc4ccnc(N(C)C)c4)C3)cc2c1 (stereo not shown) [compound 800]
19,1.88[a],CCc1cccc(CNC(=O)C2(C)CC(c3ccc4ncc(Br)cc4c3)=NO2)n1 (stereo not shown) [compound 746]
20,2.52[a],C#Cc1cnc2ccc(C3=NOC(C)(C(=O)NCc4cccnc4OC)C3)cc2c1 (stereo not shown) [compound 680]
21,2.51[a],C#Cc1cnc2ccc(C3=NOC(OC)(C(=O)NCc4cn(CC)nc4Cl)C3)cc2c1 (stereo not shown) [compound 705]
22,1.72[a],CC1(C(=O)NCc2ccc(O)nc2)CC(c2ccc3ncc(Br)cc3c2)=NO1 (stereo not shown) [compound 807]

# Same assay, conditions: method [a]: HPLC/LC-MS on reversed phase at pH 2.7, 0.1% formic acid in water / acetonitrile, gradient 10% to 95% acetonitrile
row,log P,SMILES
1,3.50[a],CC(C)NC(=O)C1(C)CC(c2ccc3nc(Cl)c(I)cc3c2)=NO1 (stereo not shown) [compound 486]
2,2.41[a],CCn1nc(C)c(NC(=O)C2(C)CC(c3ccc4ncc(Br)cc4c3)=NO2)c1C (stereo not shown) [compound 492]
3,3.35[a],CCOC1C(c2ccc3ncc(Br)cc3c2)=NOC1(C)C(=O)NC(C)C (racemic) [compound 393]
4,2.86[a],CC1(C(=O)NC(C)(C)c2ccon2)CC(c2ccc3ncc(Br)cc3c2)=NO1 (stereo not shown) [compound 494]
5,3.11[a],CC(C)NC(=O)C12ON=C(c3ccc4ncc(Br)cc4c3)C1C2C (racemic) [compound 403]
6,2.30[a],C#Cc1cnc2ccc(C3=NOC(C)(C(=O)NC(COC)COC)C3)cc2c1 (stereo not shown) [compound 459]

# Same assay, conditions: method [a]: HPLC/LC-MS on reversed phase at pH 2.7, 0.1% formic acid in water / acetonitrile, linear gradient 10% to 95% acetonitrile
row,log P,SMILES
1,1.72^[a],CCn1cnnc1CNC(=O)C1(C)CC(c2ccc3ncc(Br)cc3c2)=NO1 (stereo not shown) [compound 154]
2,3.04^[a],CC1(C(=O)NCc2ccc3c(c2)OCCO3)CC(c2ccc3ncc(Br)cc3c2)=NO1 (stereo not shown) [compound 118]
3,4.01^[a],CC1(C(=O)NCC2CCC(C(F)(F)F)CC2)CC(c2ccc3ncc(Br)cc3c2)=NO1 (stereo not shown) [compound 119]
4,3.78^[a],CC(C)NC(=O)C1(c2ccccc2)CC(c2ccc3ncc(Br)cc3c2)=NO1 (stereo not shown) [compound 136]
5,3.37^[a],CCCCC1(C(=O)NCc2cn(CC)nc2C)CC(c2ccc3ncc(Br)cc3c2)=NO1 (stereo not shown) [compound 72]
6,3.89^[a],CC1(C(=O)NCc2ncc(C(F)(F)F)cc2Cl)CC(c2ccc3ncc(Br)cc3c2)=NO1 (stereo not shown) [compound 156]
7,3.48^[a],CC1(C(=O)NCC2CCOc3ccccc32)CC(c2ccc3ncc(Br)cc3c2)=NO1 (stereo not shown) [compound 112]
8,3.55^[a],C#Cc1cnc2ccc(C3=NOC(C)(C(=O)NCCc4ccc(OC(F)(F)F)cc4)C3)cc2c1 (stereo not shown) [compound 209]
9,1.37^[a],CCN1CCCC1CNC(=O)C1(C)CC(c2ccc3ncc(Br)cc3c2)=NO1 (stereo not shown) [compound 126]
10,3.7^[a],C#Cc1cnc2ccc(C3=NOC(C)(C(=O)NCCc4ccc(Cl)cc4Cl)C3)cc2c1 (stereo not shown) [compound 212]

# Same assay, conditions: method [a]: HPLC/LC-MS on reversed phase at pH 2.7, 0.1% formic acid in water and acetonitrile, linear gradient 10% to 95% acetonitrile
row,Log P,SMILES
1,3.02^[a],COc1ccc(CNC(=O)C2(C)CC(c3cc4cc(Br)cnc4c(F)c3F)=NO2)cc1OC (stereo not shown) [compound 19]
2,2.5^[a],CCn1cc(CNC(=O)C2(C)CC(c3cc4cc(Br)cnc4c(F)c3F)=NO2)cn1 (stereo not shown) [compound 13]

# Same assay, conditions: pH 2.7
row,chromatographic logP,SMILES
1,1.79,CC(C)NC(=O)C1(C)CC(c2ccc3ncc(-c4cncnc4)cc3c2)=NO1 (stereo not shown) [Compound No. 258]

# Same assay, conditions: reversed phase HPLC column; HPLC reversed phase, pH 2.7, 0.1% formic acid in water / acetonitrile, linear gradient 10% to 95% acetonitrile; calibration with alkan-2-ones; read-out: log P (HCOOH)
row,chromatographic logP,SMILES
1,2.12,O=Cc1ccc2ncc(I)cc2c1 [3-iodoquinoline-6-carbaldehyde]
2,1.78,O/N=C/c1ccc2ncc(Cl)cc2c1 [1-(3-chloroquinolin-6-yl)-N-hydroxymethanimine]
3,3.02,CC(C)NC(=O)C1(C)CC(c2ccc3ncc(-c4ccccc4)cc3c2)=NO1 (stereo not shown) [Compound No. 141]
